Patent US8889854B2, “C-17 bicyclic amines of triterpenoids with HIV maturation inhibitory activity” (priority 2012, dated 2014)

Test system: recombinant NL4-3 virus (Renilla luciferase in nef, Gag P373S; NLRluc)
Test: HIV Cell Culture Assay (luciferase reporter virus in MT-2 cells)
Assay type: cell-based
Details: Renilla, NL43, MT-2 cells infected for 4-5 days with NLRluc recombinants; luciferase activity; reported as group A/B
Outline: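 NLRluc reporter virus (Renilla luciferase replacing part of nef, Gag P373S), made by transfecting 293T cells, was used to infect MT-2 cells for 4-5 days in serial dilutions of inhibitor. Antiviral activity was quantified from luciferase activity measured with a premixed lysis/Dual Luciferase reagent.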

| SMILES | EC50 |
| --- | --- |
| C=C(C)[C@@H]1CC[C@]2(NCCN3C[C@@H]4C[C@H]3CS4(=O)=O)CC[C@]3(C)[C@H](CC[C@@H]4[C@@]5(C)CC=C(C6=CC[C@H](C(=O)O)CC6)C(C)(C)[C@@H]5CC[C@]43C)[C@@H]12 [Example B11, (R)-4-((1R,3aS,5aR,5bR,7aR,11aS,11bR,13aR,13bR)-3a-((2-((1S,4S)-2,2-dioxido-2-thia-5-azabicyclo[2.2.1]heptan-5-yl)ethyl)amino)-5a,5b,8,8,11a-pentamethyl-1-(prop-1-en-2-yl)-2,3,3a,4,5,5a,5b,6,7,7a,8,11,11a,11b,12,13,13a,13b-octadecahydro-1H-cyclopenta[a]chrysen-9-yl)cyclohex-3-enecarboxylic acid] | < 100 nM |
| C=C(C)[C@@H]1CC[C@]2(NCCN3C[C@@H]4C[C@H]3CS4(=O)=O)CC[C@]3(C)[C@H](CC[C@@H]4[C@@]5(C)CC[C@H](OC(=O)CC(C)(C)C(=O)O)C(C)(C)[C@@H]5CC[C@]43C)[C@@H]12 [Example B12, 4-(((1R,3aS,5aR,5bR,7aR,9S,11aR,11bR,13aR,13bR)-3a-((2-((1S,4S)-2,2-dioxido-2-thia-5-azabicyclo[2.2.1]heptan-5-yl)ethyl)amino)-5a,5b,8,8,11a-pentamethyl-1-(prop-1-en-2-yl)icosahydro-1H-cyclopenta[a]chrysen-9-yl)oxy)-2,2-dimethyl-4-oxobutanoic acid] | < 100 nM |
